The target of one test is T1, Gal4-RORγ-LBD (Homo sapiens, UniProt P51449).
T1 construct: expressed in transfected cells
T1 sequence (P51449 269-508 limits assumed): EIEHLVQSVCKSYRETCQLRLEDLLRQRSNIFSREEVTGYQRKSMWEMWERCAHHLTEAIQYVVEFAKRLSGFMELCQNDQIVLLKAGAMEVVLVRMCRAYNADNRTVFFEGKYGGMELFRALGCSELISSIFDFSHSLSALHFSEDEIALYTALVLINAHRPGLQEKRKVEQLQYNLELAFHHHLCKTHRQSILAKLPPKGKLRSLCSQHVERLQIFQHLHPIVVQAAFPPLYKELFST
The test can be described thus: Gal4-RORγ Luciferase Reporter Assay in HEK-293T Cells. Particulars: HEK-293 cells, luciferase reporter; for Gal4-RORγ Assay Max Response: maximum response. Type of test: cell-based. Put shortly: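 Max Response was taken as the upper plateau of a 4-parameter logistic fit of luciferase signal, normalized to 100 for wells without ursolic acid or compound. Transiently Gal4-RORγ-LBD/Gal4-luc transfected HEK-293 cells carrying […] ursolic acid were incubated with test compounds (0.2% DMSO) overnight at 37 °C and read with One-Glo.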
A general note: A reporter such as luciferase makes a cellular process visible.

A further test concerns the target T2, RORγ-LBD (Homo sapiens, UniProt P51449).
T2 construct: made in house; host or cells: SF9 cells (baculovirus); used as diluted lysate
T2 sequence (P51449 269-508 limits assumed): T1 sequence (P51449 269-508 limits assumed)
The test can be described thus: RORγ-Ligand Binding Domain (LBD) TR-FRET Assay.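 For TR-FRET Assay Max Response: 665/615 nm signal ratio set to 100 without ursolic acid or test compound.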 In kind it is biochemical. The note with it: for TR-FRET Assay Max Response: maximum response. Put shortly:
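Compounds, diluted in DMSO and then in assay buffer (1% DMSO final), were combined with His-tagged RORγ-LBD lysate at roughly 3 nM final and a 200 nM biotinylated SRC1 LXXLL peptide. Ursolic acid was included at 2 μM final. Coactivator recruitment was detected by TR-FRET.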
Background: TR-FRET usually uses a lanthanide donor and a delayed reading to cut background.

For orientation: EC50 means the midpoint of the concentration-response curve. Consider `C/C(=C\c1ccc2c(c1)N(S(=O)(=O)c1cccc(C(F)(F)F)c1)C[C@H]([C@@H](C)NS(C)(=O)=O)O2)c1c(F)cccc1Cl` [Example 105, N—((R)-1-((R)-6-((E)-2-(2-Chloro-6-fluorophenyl)prop-1-en-1-yl)-4-((3-(trifluoromethyl)phenyl)sulfonyl)-3,4-dihydro-2H-benzo[b][1,4]oxazin-2-yl)ethyl)methanesulfonamide], for which, on Gal4-RORγ-LBD (in presence of ursolic acid), the EC50 is less than 500 nM and the “Gal4-RORγ Assay Max Response” value is listed as “** (a value in the range of greater than 90 to 150)”. On RORγ-LBD (RORγ-LBD TR-FRET assay), the EC50 was less than 500 nM and the “TR-FRET Assay Max Response” value was “** (a value in the range of greater than 90 to 150)”.

`CC1(C)CCC(=Cc2ccc3c(c2)N(S(=O)(=O)c2cccc(C(F)(F)F)c2)C[C@H](CCC(=O)O)O3)CC1` [Example 95H, (S)-3-(6-((4,4-dimethylcyclo-hexylidene)methyl)-4-((3-(trifluoromethyl)phenyl)sulfonyl)-3,4-dihydro-2H-benzo[b][1,4]oxazin-2-yl)propanoic acid]: the values for the EC50 at Gal4-RORγ-LBD (with ursolic acid) and at RORγ-LBD (RORγ-LBD TR-FRET) were 500 to 5000 nM and less than 500 nM, respectively.

As to `CC(=O)N[C@@H]1Cc2ccc(OCc3c(F)cccc3Cl)cc2N(S(=O)(=O)c2cccc(C(F)(F)F)c2)C1` [Example 160, (R)—N-(7-((2-chloro-6-fluorobenzyl)oxy)-1-((3-(trifluoromethyl)phenyl)sulfonyl)-1,2,3,4-tetrahydroquinolin-3-yl)acetamide], the EC50 at Gal4-RORγ-LBD (in presence of ursolic acid) and at RORγ-LBD (RORγ-LBD TR-FRET assay) was less than 500 nM throughout.

Regarding `C/C(=C\c1ccc2c(c1)N(S(=O)(=O)c1ccc(F)c(Cl)c1)C[C@H](CCC(=O)O)O2)c1c(F)cccc1Cl` [Example 86E, (S,E)-3-(4-((3-chloro-4-fluorophenyl)sulfonyl)-6-(2-(2-chloro-6-fluorophenyl)prop-1-en-1-yl)-3,4-dihydro-2H-benzo[b][1,4]oxazin-2-yl)propanoic acid], the results for the EC50 at Gal4-RORγ-LBD (with ursolic acid) and on RORγ-LBD (RORγ-LBD TR-FRET) were 500 to 5000 nM and less than 500 nM, respectively.

As to `O=C(O)CC[C@H]1CN(S(=O)(=O)c2cccc(OC(F)F)c2)c2cc(/C=C/c3ccccc3C(F)(F)F)ccc2O1` [Example 89AO, (S,E)-3-(4-((3-(difluoromethoxy)phenyl)sulfonyl)-6-(2-(trifluoromethyl)styryl)-3,4-dihydro-2H-benzo[b][1,4]oxazin-2-yl)propanoic acid], the EC50 on Gal4-RORγ-LBD (with ursolic acid) is 500 to 5000 nM; on RORγ-LBD (RORγ-LBD TR-FRET) it was less than 500 nM.

`COC(=O)CC[C@H]1CN(S(=O)(=O)c2cccc(C(C)C)c2)c2cc(/C=C(\C)c3c(F)cccc3Cl)ccc2O1` [Example 86R, (S,E)-methyl 3-(6-(2-(2-chloro-6-fluorophenyl)prop-1-en-1-yl)-4-((3-isopropylphenyl)sulfonyl)-3,4-dihydro-2H-benzo[b][1,4]oxazin-2-yl)propanoate]: the EC50 on Gal4-RORγ-LBD (with ursolic acid) and at RORγ-LBD (RORγ-LBD TR-FRET) was less than 500 nM throughout.

As to `COc1cc(S(=O)(=O)N2c3cc(/C=C(\C)c4c(F)cccc4Cl)ccc3C[C@@H](O)[C@H]2C)ccc1F` (racemic) [Example 169, (2R,3R)-7-((E)-2-(2-Chloro-6-fluorophenyl)prop-1-en-1-yl)-1-((4-fluoro-3-methoxyphenyl)sulfonyl)-2-methyl-1,2,3,4-tetrahydroquinolin-3-ol], on Gal4-RORγ-LBD (in presence of ursolic acid), the EC50 was less than 500 nM and the “Gal4-RORγ Assay Max Response” value was “* (a value in the range of 30 to 90)”. At RORγ-LBD (RORγ-LBD TR-FRET assay), the EC50 was less than 500 nM and the “TR-FRET Assay Max Response” value is reported as “*** (a value in the range of greater than 150 to 200)”.

Take `CCOc1nn(CC)cc1S(=O)(=O)N1C[C@H](CCC(=O)OC)Oc2ccc(/C=C/c3c(Cl)cccc3C(C)(F)F)cc21` [Example 89FF, methyl (S,E)-3-(6-(2-chloro-6-(1,1-difluoroethyl)styryl)-4-((3-ethoxy-1-ethyl-1H-pyrazol-4-yl)sulfonyl)-3,4-dihydro-2H-benzo[b][1,4]oxazin-2-yl)propanoate]: the EC50 is 500 to 5000 nM on Gal4-RORγ-LBD (with ursolic acid) and less than 500 nM at RORγ-LBD (RORγ-LBD TR-FRET).

Consider `O=S(=O)(c1cccc(C(F)(F)F)c1)N1CCCc2cc(OCc3c(F)cccc3Cl)ccc21` [Example 25J, 6-((2-chloro-6-fluorobenzyl)oxy)-1-((3-(trifluoromethyl)phenyl)sulfonyl)-1,2,3,4-tetrahydroquinoline], for which the EC50 on Gal4-RORγ-LBD (with ursolic acid) is 500 to 5000 nM; on RORγ-LBD (RORγ-LBD TR-FRET) it was less than 500 nM.

Regarding `C/C(=C\c1ccc2c(c1)N(S(=O)(=O)c1cccc(C(F)(F)F)c1)C[C@H](CCC(=O)N1CCC(C)(C(=O)O)CC1)O2)c1c(F)cccc1Cl` [Example 129N, (S,E)-1-(3-(6-(2-(2-chloro-6-fluorophenyl)-prop-1-en-1-yl)-4-((3-(trifluoromethyl)phenyl)sulfonyl)-3,4-dihydro-2H-benzo[b][1,4]oxazin-2-yl)propanoyl)-4-methylpiperidine-4-carboxylic acid], on Gal4-RORγ-LBD (in presence of ursolic acid), the concentration for a half-maximal effect (EC50) is less than 500 nM and the “Gal4-RORγ Assay Max Response” value was “** (a value in the range of greater than 90 to 150)”. At RORγ-LBD (RORγ-LBD TR-FRET assay), the EC50 is less than 500 nM and the “TR-FRET Assay Max Response” value is recorded as “*** (a value in the range of greater than 150 to 200)”.

For `COc1cc(S(=O)(=O)N2c3cc(/C=C/c4c(F)cccc4Cl)ccc3C[C@H](O)[C@H]2C)ccc1F` (racemic) [Example 174, rac-(2R,3S)-7-((E)-2-Chloro-6-fluorostyryl)-1-((4-fluoro-3-methoxyphenyl)sulfonyl)-2-methyl-1,2,3,4-tetrahydroquinolin-3-ol], at Gal4-RORγ-LBD (in presence of ursolic acid), the half-maximal effective concentration (EC50) fell in the range of 500 to 5000 nM and the “Gal4-RORγ Assay Max Response” value is “* (a value in the range of 30 to 90)”. Also, on RORγ-LBD (RORγ-LBD TR-FRET assay), the EC50 is less than 500 nM and the “TR-FRET Assay Max Response” value is listed as “** (a value in the range of greater than 90 to 150)”.

Consider `C/C(=C\c1ccc2c(c1)N(S(=O)(=O)c1ccc(F)c(C3CC3)c1)C[C@H](CCC(=O)O)O2)c1c(F)cccc1Cl` [Example 86C, (S,E)-3-(6-(2-(2-chloro-6-fluorophenyl)prop-1-en-1-yl)-4-((3-cyclopropyl-4-fluorophenyl)-sulfonyl)-3,4-dihydro-2H-benzo[b][1,4]oxazin-2-yl)-propanoic acid], for which the EC50 at Gal4-RORγ-LBD (with ursolic acid) and on RORγ-LBD (RORγ-LBD TR-FRET) was less than 500 nM throughout.

Take `CCOc1ncc(C(F)(F)F)cc1S(=O)(=O)N1C[C@H](CCC(=O)OC)Oc2ccc(/C=C/c3c(Cl)cccc3C(C)(F)F)cc21` [Example 89FH, methyl (S,E)-3-(6-(2-chloro-6-(1,1-difluoroethyl)styryl)-4-((2-ethoxy-5-(trifluoromethyl)-pyridin-3-yl)sulfonyl)-3,4-dihydro-2H-benzo[b][1,4]-oxazin-2-yl)propanoate]: the EC50 on Gal4-RORγ-LBD (with ursolic acid) and on RORγ-LBD (RORγ-LBD TR-FRET) was less than 500 nM each time.

Regarding `COC(=O)CC[C@H]1CN(S(=O)(=O)c2cc(C(F)(F)F)cnc2OCCO)c2cc(/C=C/c3c(Cl)cccc3C(F)F)ccc2O1` [Example 89EL, methyl (S,E)-3-(6-(2-chloro-6-(difluoromethyl)styryl)-4-((2-(2-hydroxyethoxy)-5-(trifluoromethyl)pyridin-3-yl)sulfonyl)-3,4-dihydro-2H-benzo[b][1,4]oxazin-2-yl)propanoate], the EC50 on Gal4-RORγ-LBD (with ursolic acid) and at RORγ-LBD (RORγ-LBD TR-FRET) was less than 500 nM throughout.

Regarding `COC(=O)CC[C@H]1CN(S(=O)(=O)c2ccc(F)c(Cl)c2)c2cc(/C=C(\C)c3c(F)cccc3Cl)ccc2O1` [Example 86F, (S,E)-methyl 3-(4-((3-chloro-4-fluorophenyl)sulfonyl)-6-(2-(2-chloro-6-fluorophenyl)prop-1-en-1-yl)-3,4-dihydro-2H-benzo-[b][1,4]oxazin-2-yl)propanoate], the EC50 at Gal4-RORγ-LBD (with ursolic acid) and on RORγ-LBD (RORγ-LBD TR-FRET) was less than 500 nM each time.

For the origin of these results see US9896441B2 (Lycera Corporation, priority 2014, dated 2018).
